Measurements reported in patent US9821173B2, “Anti-cancer agents and methods of use” (Case Western Reserve University, priority 2013, dated 2017).

Experiments:
[1] = tested on: HeLa cells; conditions: for fold more sensitive to IR exposure than cells treated with IR alone: HeLa pre-treated 24 hour with compound 3 (4 μM) or compound 4 (7 μM)
Protocol: HeLa cells were plated at a density of 250,000-300,000 cells/mL. After 24 hr cells, the cells were irradiated in a dose dependent manner (0-4 Gy) using a ^137Cs gamma source. After treatment, the cells were trypsinized and plated at a density between 300-4000 cells in 60 mm dishes. Cells were allowed to grow colonies (1 colony≧50 cells) for 10-14 days, stained with 0.25% crystal violet, and manually counted to measure the number of colonies. Survival fractions were normalized against positive controls (colony formation with no radiation) and plotted as the log percent survival versus dose of radiation. Each experiment was performed an average of four (4) times with cells propagated on several different days.
In this case, we measured the effects of combining these (phosphine)gold(I) indoles with ionizing radiation (IR), a widely used therapy used to treat solid tumors. […] After this time frame, media containing the (phosphine)gold(I) indole was removed and replaced with fresh media. The cells were then irradiated in a dose-dependent fashion from 0 to 6 Gy. Cell viability was assessed using a clonogenic assay that measures colony formation and thus accurately defines the cytotoxic effects of IR exposure. […] The initial linear phase is particularly important as this reflects repair of non-lethal damage inflicted by clinically-relevant doses of IR (˜2 Gy).

[2] = tested on: CEM-C7; experiment: Cell proliferation / cytotoxicity assay; assay type: cell-based; conditions: cell viability, cell-titer blue, up to 48 hours
Protocol: HeLa, MCF-7, HCT-116, and CEM-C7 were obtained from the American Type Culture Collection (Manassas, Va., USA). All adherent cell lines were maintained in Dulbecco's modified Eagle's medium (Mediatech) with 100 U/ml penicillin (Invitrogen), 100 μg/ml streptomycin (Invitrogen), 0.25 μg/ml amphotericin B (Invitrogen), and 10% fetal bovine serum (USA Scientific) and incubated at 37° C. with 5% CO2. CEM cells were maintained in RPMI-1640 media supplemented with 100 U/ml penicillin, 100 μg/ml streptomycin, 0.25 μg/ml amphotericin B, and 10% fetal bovine serum and incubated at 37° C. with […].
Cells were plated at a density of 7,000-13,000/well in 200 μl of media overnight in a 96-well plate. Each (phosphine)gold(I)-indole was added to wells in a dose-dependent manner (0.01-100 μM). Cells were treated with compounds for variable time periods (8-48 hours). With adherent cell lines, medium was removed from the wells and then 100 μl of fresh medium was added into each well followed by the addition of 20 μl of cell titer-blue reagent (Promega). Cells were incubated with reagent for 1-4 hrs and the optical density of samples was read at 560 nm using a microplate reader. The background absorbance of dye with media was subtracted from each sample. Cell viability was then normalized against cells treated with DMSO. IC50 values were obtained using a fit of the data to Equation 1: Y=100%/[1+(IC50/Inhibitor)] (1)
where y is the fraction of viable cells, IC50 is the concentration of inhibitor that inhibits 50% cell growth, and Inhibitor is the concentration of compound tested.
The cellular effects of these (phosphine)gold(I) indoles were tested against several cancer cell lines including HeLa (cervical cancer), MCF-7 (breast cancer), HCT-116 (colon cancer), and CEM-C7 (leukemia). The dose-dependency of each modified indole on cell viability was assessed using a cell-titer blue assay as previously described. In these experiments, cells were exposed to variable concentrations of each (phosphine)gold(I) indole (0.01-100 μM) for up to 48 hours and then assessed for viability.
Defining this mechanism of cell death is important as necrosis can cause various side-effects including septic shock and kidney failure that can obviously compromise patient health.

[3] = molecular target: T1, CLK1 (Homo sapiens, UniProt P49759); experiment: Kinase inhibition screening (Luceome); assay type: biochemical; conditions: 10 μM
T1 construct: purchased Luceome Biotechnologies (Tucson, Ariz.)
From the text: (§1) It is well established that dysfunctional and unregulated kinase activity plays significant roles in cancer initiation and progression. […] Inspection of the data provides several interesting observations. […] These inhibitory effects at this concentration are consistent with their measured IC50 values that are also in the μM range (Table 1). In addition, several kinases display overlapping inhibitory responses to both gold(I) compounds. Many of these are of particular interest since they are involved in cancer initiation and/or progression. For example, the Aurora kinase family members, Aurora A and Aurora B, as well as the MARK2 and MARK3 kinases function during mitosis to regulate cell division. These kinases are important therapeutic targets as their activities are often deregulated in many types of cancers. Other kinases such as RPS6KA3 and MLK3 are involved in the MAP kinase and JNK pathways which are also important in cancer progression.

[4] = molecular target: T2, CAMKK1 (Homo sapiens, UniProt Q8N5S9); experiment: Kinase inhibition screening (Luceome); assay type: biochemical; conditions: 10 μM
T2 construct: purchased Luceome Biotechnologies (Tucson, Ariz.)
From the text: as §1

[5] = molecular target: T3, SNF1LK (Homo sapiens, UniProt P57059); experiment: Kinase inhibition screening (Luceome); assay type: biochemical; conditions: 10 μM
T3 construct: purchased Luceome Biotechnologies (Tucson, Ariz.)
From the text: as §1

[6] = molecular target: T4, PIM2 (Homo sapiens, UniProt Q9P1W9); experiment: Kinase inhibition screening (Luceome); assay type: biochemical; conditions: 10 μM
T4 construct: purchased Luceome Biotechnologies (Tucson, Ariz.)
From the text: as §1

[7] = molecular target: T5, SYK (Homo sapiens, UniProt P43405); experiment: Kinase inhibition screening (Luceome); assay type: biochemical; conditions: 10 μM
T5 construct: purchased Luceome Biotechnologies (Tucson, Ariz.)
From the text: as §1

[8] = molecular target: T6, MARK3 (Homo sapiens, UniProt P27448); experiment: Kinase inhibition screening (Luceome); assay type: biochemical; conditions: 10 μM
T6 construct: purchased Luceome Biotechnologies (Tucson, Ariz.)
From the text: as §1

[9] = molecular target: T7, YSK1 (Homo sapiens, UniProt O00506); experiment: Kinase inhibition screening (Luceome); assay type: biochemical; conditions: 10 μM
T7 construct: purchased Luceome Biotechnologies (Tucson, Ariz.)
From the text: as §1

[10] = molecular target: T8, AURKC (Homo sapiens, UniProt Q9UQB9); experiment: Kinase inhibition screening (Luceome); assay type: biochemical; conditions: 10 μM
T8 construct: purchased Luceome Biotechnologies (Tucson, Ariz.)
From the text: as §1

[11] = molecular target: T9, PRS6KA1 (Homo sapiens, UniProt Q15418); experiment: Kinase inhibition screening (Luceome); assay type: biochemical; conditions: 10 μM
T9 construct: purchased Luceome Biotechnologies (Tucson, Ariz.)
From the text: as §1

[12] = molecular target: T10, CAM1G (Homo sapiens, UniProt Q96NX5); experiment: Kinase inhibition screening (Luceome); assay type: biochemical; conditions: 10 μM
T10 construct: purchased Luceome Biotechnologies (Tucson, Ariz.)
From the text: as §1

[13] = molecular target: T11, CAMK1 (Homo sapiens, UniProt Q14012); experiment: Kinase inhibition screening (Luceome); assay type: biochemical; conditions: 10 μM
T11 construct: purchased Luceome Biotechnologies (Tucson, Ariz.)
From the text: as §1

[14] = molecular target: T12, PKAC-α (Homo sapiens, UniProt P17612); experiment: Kinase inhibition screening (Luceome); assay type: biochemical; conditions: 10 μM
T12 construct: purchased Luceome Biotechnologies (Tucson, Ariz.)
From the text: as §1

[15] = molecular target: T13, PKG1 (Homo sapiens, UniProt Q13976); experiment: Kinase inhibition screening (Luceome); assay type: biochemical; conditions: 10 μM
T13 construct: purchased Luceome Biotechnologies (Tucson, Ariz.)
From the text: as §1

[16] = molecular target: T14, TNK2 (Homo sapiens, UniProt Q07912); experiment: Kinase inhibition screening (Luceome); assay type: biochemical; conditions: 10 μM
T14 construct: purchased Luceome Biotechnologies (Tucson, Ariz.)
From the text: as §1

T4 sequence (Q9P1W9 whole entry): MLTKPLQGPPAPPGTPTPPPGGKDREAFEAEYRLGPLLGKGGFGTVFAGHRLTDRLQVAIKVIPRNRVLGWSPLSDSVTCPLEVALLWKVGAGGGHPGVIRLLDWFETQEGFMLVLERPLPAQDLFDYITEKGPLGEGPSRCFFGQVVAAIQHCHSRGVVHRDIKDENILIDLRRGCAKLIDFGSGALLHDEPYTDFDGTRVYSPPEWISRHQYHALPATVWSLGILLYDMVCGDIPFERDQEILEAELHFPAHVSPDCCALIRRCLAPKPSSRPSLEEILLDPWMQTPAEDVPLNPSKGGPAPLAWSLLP
T11 sequence (Q14012 whole entry): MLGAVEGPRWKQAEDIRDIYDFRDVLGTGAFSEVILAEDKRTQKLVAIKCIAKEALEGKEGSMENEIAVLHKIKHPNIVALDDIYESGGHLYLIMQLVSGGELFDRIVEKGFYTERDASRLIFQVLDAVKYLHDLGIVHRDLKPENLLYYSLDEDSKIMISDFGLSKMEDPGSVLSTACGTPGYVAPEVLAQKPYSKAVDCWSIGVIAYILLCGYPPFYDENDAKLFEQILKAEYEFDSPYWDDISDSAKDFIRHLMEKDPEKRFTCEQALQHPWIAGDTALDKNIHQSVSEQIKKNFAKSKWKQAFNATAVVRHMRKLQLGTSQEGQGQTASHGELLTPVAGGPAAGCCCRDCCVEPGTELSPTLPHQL
T6 sequence (P27448 whole entry): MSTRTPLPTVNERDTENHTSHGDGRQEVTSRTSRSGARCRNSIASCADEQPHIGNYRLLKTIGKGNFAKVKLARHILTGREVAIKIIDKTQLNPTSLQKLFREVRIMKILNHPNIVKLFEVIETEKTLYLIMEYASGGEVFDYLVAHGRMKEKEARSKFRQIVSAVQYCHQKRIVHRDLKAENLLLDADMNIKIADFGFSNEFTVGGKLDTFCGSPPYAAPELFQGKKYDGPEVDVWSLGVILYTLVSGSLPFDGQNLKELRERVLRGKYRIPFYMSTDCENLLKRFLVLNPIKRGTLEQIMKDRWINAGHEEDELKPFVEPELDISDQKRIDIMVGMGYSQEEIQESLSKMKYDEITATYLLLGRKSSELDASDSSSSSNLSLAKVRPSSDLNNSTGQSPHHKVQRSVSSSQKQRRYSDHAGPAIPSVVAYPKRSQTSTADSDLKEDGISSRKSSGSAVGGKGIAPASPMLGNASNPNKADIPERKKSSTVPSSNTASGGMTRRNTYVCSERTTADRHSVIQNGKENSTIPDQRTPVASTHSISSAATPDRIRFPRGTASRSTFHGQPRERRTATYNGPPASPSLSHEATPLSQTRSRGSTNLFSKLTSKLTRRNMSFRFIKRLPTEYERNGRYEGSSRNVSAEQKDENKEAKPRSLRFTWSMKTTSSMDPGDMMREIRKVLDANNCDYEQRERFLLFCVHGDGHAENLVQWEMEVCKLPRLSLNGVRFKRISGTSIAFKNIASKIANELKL
T7 sequence (O00506 whole entry): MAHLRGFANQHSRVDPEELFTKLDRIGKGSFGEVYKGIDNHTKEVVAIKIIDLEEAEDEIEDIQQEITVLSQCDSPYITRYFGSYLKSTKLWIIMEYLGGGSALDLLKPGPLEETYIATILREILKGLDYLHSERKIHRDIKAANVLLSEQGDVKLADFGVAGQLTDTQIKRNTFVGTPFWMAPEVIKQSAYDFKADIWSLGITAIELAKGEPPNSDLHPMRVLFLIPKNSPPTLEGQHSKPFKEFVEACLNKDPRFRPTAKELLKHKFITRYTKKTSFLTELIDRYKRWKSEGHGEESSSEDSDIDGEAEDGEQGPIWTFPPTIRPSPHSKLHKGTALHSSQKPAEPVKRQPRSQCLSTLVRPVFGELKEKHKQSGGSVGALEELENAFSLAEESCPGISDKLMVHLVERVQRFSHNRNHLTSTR
T8 sequence (Q9UQB9 whole entry): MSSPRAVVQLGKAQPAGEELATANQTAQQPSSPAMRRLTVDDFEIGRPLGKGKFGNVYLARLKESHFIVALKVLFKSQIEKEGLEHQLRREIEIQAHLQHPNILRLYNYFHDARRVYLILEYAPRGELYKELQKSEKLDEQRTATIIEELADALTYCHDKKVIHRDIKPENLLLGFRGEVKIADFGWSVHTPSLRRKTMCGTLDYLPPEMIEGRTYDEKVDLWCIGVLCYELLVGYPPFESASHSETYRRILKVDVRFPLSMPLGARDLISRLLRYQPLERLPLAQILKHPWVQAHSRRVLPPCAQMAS
T9 sequence (Q15418 whole entry): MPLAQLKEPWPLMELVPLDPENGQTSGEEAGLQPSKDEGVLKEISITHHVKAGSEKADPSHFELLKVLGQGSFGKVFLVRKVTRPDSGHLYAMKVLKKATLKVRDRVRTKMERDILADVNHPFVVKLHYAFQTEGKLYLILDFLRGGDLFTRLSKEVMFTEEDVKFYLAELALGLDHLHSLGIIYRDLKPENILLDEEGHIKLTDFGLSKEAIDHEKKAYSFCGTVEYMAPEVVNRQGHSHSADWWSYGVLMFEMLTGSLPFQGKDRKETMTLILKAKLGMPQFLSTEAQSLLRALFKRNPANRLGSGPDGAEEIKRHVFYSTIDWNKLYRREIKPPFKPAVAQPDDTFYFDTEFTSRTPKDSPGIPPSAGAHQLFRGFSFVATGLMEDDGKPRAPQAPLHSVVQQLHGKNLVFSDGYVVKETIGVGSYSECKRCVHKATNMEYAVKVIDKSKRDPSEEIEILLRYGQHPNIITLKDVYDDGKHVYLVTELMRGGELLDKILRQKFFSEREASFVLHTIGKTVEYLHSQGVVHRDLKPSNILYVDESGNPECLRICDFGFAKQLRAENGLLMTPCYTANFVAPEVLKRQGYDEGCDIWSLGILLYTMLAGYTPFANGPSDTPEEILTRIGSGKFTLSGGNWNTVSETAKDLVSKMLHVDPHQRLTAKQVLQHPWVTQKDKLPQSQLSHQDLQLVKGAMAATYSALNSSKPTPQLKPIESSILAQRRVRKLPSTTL
T2 sequence (Q8N5S9 whole entry): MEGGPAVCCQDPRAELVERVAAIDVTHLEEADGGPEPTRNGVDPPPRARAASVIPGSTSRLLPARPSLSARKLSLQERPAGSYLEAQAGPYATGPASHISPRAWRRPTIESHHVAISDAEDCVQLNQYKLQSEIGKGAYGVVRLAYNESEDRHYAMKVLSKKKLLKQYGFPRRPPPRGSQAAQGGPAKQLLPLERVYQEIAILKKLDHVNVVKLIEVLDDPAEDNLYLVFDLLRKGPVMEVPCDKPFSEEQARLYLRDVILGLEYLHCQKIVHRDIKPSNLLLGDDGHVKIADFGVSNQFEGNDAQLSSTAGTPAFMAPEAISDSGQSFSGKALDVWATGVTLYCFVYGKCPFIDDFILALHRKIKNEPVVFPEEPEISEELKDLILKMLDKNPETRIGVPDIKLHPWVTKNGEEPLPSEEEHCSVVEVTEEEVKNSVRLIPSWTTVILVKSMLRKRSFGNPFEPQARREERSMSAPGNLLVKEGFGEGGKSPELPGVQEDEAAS
T1 sequence (P49759 whole entry): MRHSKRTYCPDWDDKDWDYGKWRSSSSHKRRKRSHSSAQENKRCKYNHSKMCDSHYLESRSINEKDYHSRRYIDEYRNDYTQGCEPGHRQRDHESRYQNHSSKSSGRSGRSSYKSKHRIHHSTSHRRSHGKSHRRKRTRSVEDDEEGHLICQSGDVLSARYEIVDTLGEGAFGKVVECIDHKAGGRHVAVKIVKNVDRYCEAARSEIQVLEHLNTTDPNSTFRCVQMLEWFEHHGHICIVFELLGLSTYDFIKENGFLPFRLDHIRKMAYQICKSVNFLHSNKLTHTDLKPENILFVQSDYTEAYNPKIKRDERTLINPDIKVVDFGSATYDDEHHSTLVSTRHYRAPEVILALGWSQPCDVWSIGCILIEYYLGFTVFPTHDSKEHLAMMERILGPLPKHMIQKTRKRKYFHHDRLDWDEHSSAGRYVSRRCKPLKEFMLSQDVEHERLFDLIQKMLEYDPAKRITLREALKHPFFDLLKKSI
T10 sequence (Q96NX5 whole entry): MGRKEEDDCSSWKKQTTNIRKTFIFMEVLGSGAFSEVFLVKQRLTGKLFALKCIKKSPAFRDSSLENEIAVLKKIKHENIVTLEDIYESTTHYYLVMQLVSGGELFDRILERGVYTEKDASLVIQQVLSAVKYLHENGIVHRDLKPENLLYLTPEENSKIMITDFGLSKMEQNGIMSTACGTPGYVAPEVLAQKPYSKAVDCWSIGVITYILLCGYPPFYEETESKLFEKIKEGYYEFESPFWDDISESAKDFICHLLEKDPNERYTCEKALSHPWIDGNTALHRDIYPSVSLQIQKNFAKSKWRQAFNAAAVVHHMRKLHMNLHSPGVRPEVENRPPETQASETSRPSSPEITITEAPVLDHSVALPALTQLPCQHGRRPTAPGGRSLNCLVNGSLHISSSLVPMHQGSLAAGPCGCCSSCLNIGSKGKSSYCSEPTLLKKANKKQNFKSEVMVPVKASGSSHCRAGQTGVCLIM

Row | Structure (SMILES) | fold more sensitive to IR exposure than cells treated with IR alone [1] [fold] | IC50 [2] [µM] | % Inhibition CLK1 [3] [%] | % Inhibition CAMKK1 [4] [%] | % Inhibition SNF1LK [5] [%] | % Inhibition PIM2 [6] [%] | % Inhibition SYK [7] [%] | % Inhibition MARK3 [8] [%] | % Inhibition YSK1 [9] [%] | % Inhibition AURKC [10] [%] | % Inhibition PRS6KA1 [11] [%] | % Inhibition CAM1G [12] [%] | % Inhibition CAMK1 [13] [%] | % Inhibition PKAC-α [14] [%] | % Inhibition PKG1 [15] [%] | % Inhibition TNK2 [16] [%] | dose-modifying factor ([1]; ionizing radiation, HeLa)
1 | CC(C)(C)OC(=O)n1ccc2c[c]([Au-][P+](C3CCCCC3)(C3CCCCC3)C3CCCCC3)ccc21 [Compound 4, 5-{Tricyclohexylphosphine aurate(I)}-tert-butyl1H-indole-1-carboxylate] | ~4 | 9.7 | 0 | 0 | 40.6 | 8.7 | 40.7 | 34 | 20.9 | 35.0 | 0 | 0 | 0 | 12.4 | 3.2 | 2.2 | –
2 | CC(C)(C)OC(=O)n1ccc2c[c]([Au-][P+](c3ccccc3)(c3ccccc3)c3ccccc3)ccc21 [Compound 3, 5-{Triphenylphosphine aurate(I)}-tert-butyl1H-indole-1-carboxylate] | ~4 | 19.9 | 0 | 0 | 0 | 0 | 21.6 | 6.5 | 0 | 23.9 | 0 | 0 | 0 | 0 | 5.4 | 0 | 4
